PMC8880313, “Discovery of Novel Andrographolide Derivatives as Antiviral Inhibitors against Human Enterovirus A71” (Pharmaceuticals, 2022)

Experiments:
[1] = Cell viability assay (alamarBlue); format: cell-based, human; conditions: human, RD cells
Experimental: (§1) Firstly, we performed cell viability assay to evaluate the cytotoxicity profile of the 19 hits. Cells seeded overnight were treated with the hit compounds at 10 µM. […] Anti-EV-A71 activity of AGP-253 had been illustrated and discussed previously. We were particularly interested in ZAF-46 and ZAF-47 as they belonged to the same series bearing novel 14-quinolinoxy and 17-hydro-8,9-olefin modifications (Figure 2b) that could potentially open up new targets for EV-A71 therapeutics. Additional cell viability assays were performed for ZAF-46 and ZAF-47 at different concentrations to identify the low cytotoxic concentrations for downstream post-treatment assays. For post-treatment assays, cells seeded overnight were infected with EV-A71 and subsequently treated with ZAF-46 and ZAF-47 at different concentrations. […] Treatment with ZAF-46 led to 1.4 log reduction at 10 µM and 2.4 log reduction at 20 µM (Figure 2c) while treatment with ZAF-47 led to 0.8 log reduction at 5 µM, 1.1 log reduction at 10 µM and 2.1 log reduction at 20 µM (Figure 2d). CC50 and IC50 for both compounds were determined and used to derive their SI (Table 2). ZAF-47 was selected for further downstream analysis due to its higher SI value which indicate higher pharmacological value for clinical use.
(§2) To determine the cytotoxicity profiles of the hits, cell viability assay was performed. Seeded 96-well plates, with 2 × 10^4 RD cells per well, were incubated overnight at 37 °C with 5% CO2. Different concentrations of drug hits, diluted by reduced serum DMEM, were used to treat the seeded cells for 12 h at 37 °C with 5% CO2. Reduced serum DMEM, was employed as the negative control and 0.1% DMSO as the vehicle control for this step. Subsequently, the supernatant was replaced with alamarBlue^TM Cell Viability Reagent (Thermo Fisher Scientific, Waltham, MA, USA) (100 µL), diluted 10-fold in reduced serum DMEM, and incubated for 3 h at 37 °C with 5% CO2. Fluorescence intensity in each well was measured at 570 nm excitation wavelength and 600 nm emission wavelength in each well by the Infinite^TM 200 series microplate reader (Tecan, Männedorf, Switzerland) and normaliszd with the negative control to determine the relative cell viability.

[2] = system: RD cells; test: Cell viability assay (alamarBlue); format: cell-based, human; conditions: 10 µM, 12 h
Experimental: as §1, §2

[3] = system: EV-A71; test: Post-treatment assay with viral plaque assay; format: cell-based, human enterovirus A71 (EV-A71) strain 41; conditions: for reduction in viral titre: post-treatment, 12 hpi
Experimental: as §1
(§3) To determine the inhibitory profiles of the hits, post treatment assay was performed. Seeded 24-well plates, with 1.5 × 10^5 RD cells per well, were incubated overnight at 37 °C with 5% CO2. The seeded cells were infected with EV-A71 (100 µL per well, MOI = 1) for 1 h at 37 °C with 5% CO2 and then rinsed with 1 mL of PBS twice. Different concentrations of the hits were used to treat the infected cells for 12 h at 37 °C with 5% CO2. At 12 hpi, the plates were frozen and thawed for 2 cycles (−80°C; 37 °C) before collection of supernatants to measure the viral titres via viral plaque assay.
(§4) Measurement of the viral titres from collected supernatants was derived from viral plaque assays. To do this, 24-well plates, seeded with 2.4 × 10^5 RD cells per well, were used in plaque assays for EV-A71, EV-D68, Echo7, CV-A6, CV-A16 and CV-A24 while 24-well plates, seeded with 1.2 × 10^5 Vero cells per well, were used in plaque assays for CV-B5. Seeded cells were incubated overnight at 37 °C with 5% CO2. Viral supernatants were diluted from 10^−1 to 10^−7 in reduced serum DMEM before infecting the cells with a volume of 100 µL for 1 h at 37 °C with 5% CO2 (33 °C instead for EV-D68). Cells were rinsed twice with PBS before overlaying with 1 mL of reduced serum DMEM containing 0.5% agarose (Vivantis, Shah Alam, Malaysia). Cells infected with Echo7 supernatants were incubated for 2 days, cells infected with CV-A24 and CV-B5 supernatants were incubated for 3 days and cells infected with EV-A71, CV-A6, CV-A16 and EV-D68 supernatants were incubated for 4 days for the formation of plaques. Subsequently, the cells were fixed and stained overnight with 4% paraformaldehyde and 1% crystal violet (Sigma-Aldrich). Subsequent formation of viral plaques was counted manually to quantify the viral titre in PFU/mL

[4] = system: CV-A16; test: Post-treatment assay, antiviral spectrum; format: cell-based, Coxsackievirus A16
Experimental: (§5) We were also interested in the antiviral potential of ZAF-47 against other Enteroviruses. As such, we performed post-treatment assay on RD cells infected with other Enteroviruses such as CV-A16, CV-A6, Echo7, CV-B5, CV-A24 and EV-D68.
To determine the inhibitory profiles of the hits, post treatment assay was performed. Seeded 24-well plates, with 1.5 × 10^5 RD cells per well, were incubated overnight at 37 °C with 5% CO2. The seeded cells were infected with EV-A71 (100 µL per well, MOI = 1) for 1 h at 37 °C with 5% CO2 and then rinsed with 1 mL of PBS twice. […]
as §4, with “Cells infected with Echo7 supernatants were incubated for 2 days, cells infected with CV-A24 and CV-B5 supernatants were incubated for 3 days and cells infected with EV-A71, CV-A6, CV-A16 and EV-D68 supernatants were incubated for 4 days for the formation of plaques. Subsequently, the cells were fixed and stained overnight with 4% paraformaldehyde and 1% crystal violet (Sigma-Aldrich).” left out, “PFU/mL […]” for “PFU/mL”

[5] = system: Echo7; test: Post-treatment assay, antiviral spectrum; format: cell-based, Echovirus 7 strain Wallace
Experimental: as §5, §3
(§6) Measurement of the viral titres from collected supernatants was derived from viral plaque assays. To do this, 24-well plates, seeded with 2.4 × 10^5 RD cells per well, were used in plaque assays for EV-A71, EV-D68, Echo7, CV-A6, CV-A16 and CV-A24 while 24-well plates, seeded with 1.2 × 10^5 Vero cells per well, were used in plaque assays for CV-B5. Seeded cells were incubated overnight at 37 °C with 5% CO2. […] Subsequent formation of viral plaques was counted manually to quantify the viral titre in PFU/mL […]

[6] = system: EV-D68; test: Post-treatment assay, antiviral spectrum; format: cell-based, Enterovirus D68
Experimental: as §5, §3, §6

In the case of `CC(=O)OC[C@]1(C)C(=O)CC[C@@]2(C)C(C/C=C3/C(=O)OC[C@@H]3Oc3cccc4cccnc34)=C(C)CC[C@@H]21` [ZAF-47, (14β)-(8′-Quinolinoxy)-3-ketone-9-dehydro-17-hydro-19-acetoxy–andrographolide], the CC50 at 12 h [1] is reported as 29.6 µM, the cytotoxicity [2] is reported as “low cytotoxicity” and the “reduction in viral titre” value ([3]; 5 µM) is reported as 0.8 log. For the same compound, the “reduction in viral titre” value ([3]; 10 µM) was 1.1 log, the “reduction in viral titre” value ([3]; 20 µM) was 2.1 log and the IC50 ([3]; Enterovirus A, EVA71, EV-A71-infected RD cells, MOI = 1, 12 h treatment, viral plaque assay) was 2.06 µM. For the same compound, the “Selectivity Index (SI)” value ([3]; SI = CC50/IC50) was 14.35, the viral titre ([4]; 10 µM, CV-A16-infected RD cells) was “reducing the viral titres of the above-listed enteroviruses significantly” and the IC50 ([4]; CVA16, CV-A16, Enterovirus A, drug treatment duration 16 h, RD cells) was 1.38 µM. For the same compound, the viral titre ([5]; 10 µM, Echo7-infected RD cells) was “reducing the viral titres of the above-listed enteroviruses significantly”, the IC50 ([5]; Echo7, Enterovirus B, drug treatment duration 12 h, RD cells) was 6.7 µM and the viral titre ([6]; 10 µM, EV-D68-infected RD cells) was “reducing the viral titres of the above-listed enteroviruses significantly”. For the same compound, the IC50 ([6]; EVD68, EV-D68, Enterovirus D, drug treatment duration 12 h, RD cells) was 5.1 µM.
